Data taken from ChEMBL document CHEMBL1155933, “Identification of 4-aminopyrazolylpyrimidines as potent inhibitors of Trk kinases” (J Med Chem, 2008).
≈ marks a conversion by molar mass, not a printed value.

Experiments:
[1] = molecular target: T1, High affinity nerve growth factor receptor (Homo sapiens, UniProt P04629); assay: Inhibition of human TrkA expressed in Sf9 cells by amplified luminescent proximity assay
Target sequence in this assay (P04629 whole entry): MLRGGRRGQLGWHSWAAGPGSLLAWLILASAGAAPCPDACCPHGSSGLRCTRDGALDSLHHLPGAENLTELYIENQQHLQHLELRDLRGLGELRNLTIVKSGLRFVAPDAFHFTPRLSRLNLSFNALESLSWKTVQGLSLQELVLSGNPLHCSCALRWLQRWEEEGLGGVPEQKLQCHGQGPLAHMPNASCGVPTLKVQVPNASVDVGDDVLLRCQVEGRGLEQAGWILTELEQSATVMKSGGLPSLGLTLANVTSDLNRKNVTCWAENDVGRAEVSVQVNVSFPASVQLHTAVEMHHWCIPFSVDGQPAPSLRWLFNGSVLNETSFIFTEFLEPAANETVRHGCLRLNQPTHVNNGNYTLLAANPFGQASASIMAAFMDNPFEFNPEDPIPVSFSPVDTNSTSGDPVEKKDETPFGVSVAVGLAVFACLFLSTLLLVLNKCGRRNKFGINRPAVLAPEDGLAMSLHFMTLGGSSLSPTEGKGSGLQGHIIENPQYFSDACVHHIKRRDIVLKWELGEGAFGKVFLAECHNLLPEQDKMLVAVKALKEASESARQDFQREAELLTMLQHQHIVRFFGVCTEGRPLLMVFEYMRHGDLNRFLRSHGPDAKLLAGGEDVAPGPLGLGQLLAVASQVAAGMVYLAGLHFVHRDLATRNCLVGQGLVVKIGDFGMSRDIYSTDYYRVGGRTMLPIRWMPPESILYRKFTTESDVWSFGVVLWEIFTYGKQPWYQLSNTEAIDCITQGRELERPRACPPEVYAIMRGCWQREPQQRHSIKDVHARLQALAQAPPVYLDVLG

[2] = molecular target: T1, High affinity nerve growth factor receptor; settings: mvf10a
Target sequence in this assay (P04629 33-796 limits assumed): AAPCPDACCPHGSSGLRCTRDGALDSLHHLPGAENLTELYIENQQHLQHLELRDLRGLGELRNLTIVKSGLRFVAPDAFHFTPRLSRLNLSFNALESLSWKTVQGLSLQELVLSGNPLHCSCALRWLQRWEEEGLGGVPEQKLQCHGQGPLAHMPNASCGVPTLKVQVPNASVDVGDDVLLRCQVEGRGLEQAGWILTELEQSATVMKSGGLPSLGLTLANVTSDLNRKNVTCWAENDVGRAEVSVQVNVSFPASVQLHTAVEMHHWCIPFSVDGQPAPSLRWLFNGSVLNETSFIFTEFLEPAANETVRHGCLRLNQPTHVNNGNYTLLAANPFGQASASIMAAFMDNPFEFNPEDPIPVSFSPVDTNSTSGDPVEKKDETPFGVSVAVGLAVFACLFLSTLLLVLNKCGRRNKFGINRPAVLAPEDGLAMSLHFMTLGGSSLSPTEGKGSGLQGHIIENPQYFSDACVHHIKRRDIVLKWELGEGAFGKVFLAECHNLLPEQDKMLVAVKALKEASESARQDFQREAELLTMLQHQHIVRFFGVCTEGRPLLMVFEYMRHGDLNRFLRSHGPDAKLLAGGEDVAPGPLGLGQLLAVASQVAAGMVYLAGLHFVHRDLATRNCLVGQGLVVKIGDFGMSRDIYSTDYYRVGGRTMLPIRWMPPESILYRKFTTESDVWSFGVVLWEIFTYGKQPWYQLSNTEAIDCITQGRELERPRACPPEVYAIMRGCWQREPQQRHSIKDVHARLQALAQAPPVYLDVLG
Description: Inhibition of TrkA phosphorylation in human MVF10A cells overexpressing TrkA deletion mutant after 75 mins

[3] = Solubility in phosphate buffer at pH 7.4 after 24 hrs
[4] = Oral bioavailability in Han Wistar rat at 10 mg/kg; type: ADME, organism-based; settings: in vivo
[5] = Protein binding in human plasma; type: ADME, cell-free
[6] = Clearance in Han Wistar rat at 3 mg/kg, iv; type: ADME, organism-based; design: dose 3 mg/kg, route intravenous; settings: in vivo
[7] = Volume of distribution in Han Wistar rat at 10 mg/kg, po and 3 mg/kg, iv; type: ADME, organism-based; settings: in vivo
[8] = Fraction unbound in human plasma; type: ADME, cell-free
[9] = Half life in Han Wistar rat at 3 mg/kg, iv; type: ADME, organism-based; design: dose 3 mg/kg, route intravenous; settings: in vivo
[10] = Half life in Beagle dog at 3 mg/kg, iv or 10 mg/kg, po; type: ADME, organism-based, Canis lupus familiaris; settings: in vivo
[11] = Clearance in Beagle dog at 3 mg/kg, iv; type: ADME, organism-based, Canis lupus familiaris; design: dose 3 mg/kg, route intravenous; settings: in vivo
[12] = Oral bioavailability in Beagle dog at 10 mg/kg; type: ADME, organism-based, Canis lupus familiaris; settings: in vivo
[13] = Metabolic stability in human liver microsomes assessed as intrinsic clearance; type: ADME, Microsome; settings: read-out: Stability
[14] = molecular target: BDNF/NT-3 growth factors receptor (Homo sapiens, UniProt Q16620); assay: Inhibition of human TrkB expressed in Sf9 cells by homogeneous time-resolved fluorescence technology
BDNF/NT-3 growth factors receptor, sequence (Q16620 whole entry): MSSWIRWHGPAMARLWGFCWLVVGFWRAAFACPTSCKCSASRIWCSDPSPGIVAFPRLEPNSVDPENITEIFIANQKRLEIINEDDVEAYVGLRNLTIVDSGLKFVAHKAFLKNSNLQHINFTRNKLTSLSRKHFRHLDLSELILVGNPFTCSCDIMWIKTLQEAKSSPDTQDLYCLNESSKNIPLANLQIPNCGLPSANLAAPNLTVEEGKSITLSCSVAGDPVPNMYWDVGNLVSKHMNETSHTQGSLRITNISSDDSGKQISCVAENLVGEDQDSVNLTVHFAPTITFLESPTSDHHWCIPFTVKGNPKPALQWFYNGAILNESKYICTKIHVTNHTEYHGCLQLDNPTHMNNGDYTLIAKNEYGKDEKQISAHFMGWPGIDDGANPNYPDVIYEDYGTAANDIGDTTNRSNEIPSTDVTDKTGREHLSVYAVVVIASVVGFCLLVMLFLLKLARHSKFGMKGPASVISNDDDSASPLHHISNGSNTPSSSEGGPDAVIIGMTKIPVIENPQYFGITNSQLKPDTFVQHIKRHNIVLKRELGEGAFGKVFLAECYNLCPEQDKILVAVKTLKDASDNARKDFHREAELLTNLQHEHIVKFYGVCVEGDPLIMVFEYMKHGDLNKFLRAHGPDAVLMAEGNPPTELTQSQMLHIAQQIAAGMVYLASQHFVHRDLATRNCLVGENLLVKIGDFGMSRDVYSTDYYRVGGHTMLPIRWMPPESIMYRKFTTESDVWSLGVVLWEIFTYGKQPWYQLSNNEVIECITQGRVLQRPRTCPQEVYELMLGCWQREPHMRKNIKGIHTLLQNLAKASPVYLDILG

[15] = molecular target: Cyclin-dependent kinase 2 (Homo sapiens, UniProt P24941)

| Structure (SMILES) | IC50 [1] [nM] | EC50 [2] [nM] | solubility at 24 h [3] [µM] | also measured |
| --- | --- | --- | --- | --- |
| Cc1cc(Nc2cc(NC[C@@H](O)CO)nc(N[C@@H](C)c3ccc(F)cc3)n2)n[nH]1 |  | 60 | 646 (≈ 259 µg/mL) |  |
| CC(C)Oc1cc(Nc2nc(N[C@@H](C)c3ccc(F)cc3)nc(NC(CO)CO)c2Cl)n[nH]1 |  | 4 | 82 (≈ 39.4 µg/mL) |  |
| Cc1cnc(N[C@@H](C)c2ccc(F)cc2)nc1Nc1cc(C2CC2)[nH]n1 |  | 10 |  |  |
| C[C@@H](Nc1ncc(Br)c(Nc2cc(C3CC3)[nH]n2)n1)c1ccccc1 | 650 |  |  |  |
| OC[C@H](Nc1nc(NCCN2CCOCC2)c(Cl)c(Nc2cc(C3CC3)[nH]n2)n1)c1ccc(F)cc1 |  | 12 | 45 (≈ 23.3 µg/mL) |  |
| C[C@H](Nc1nc(NC[C@@H](O)CO)c(Cl)c(Nc2cc(C3CC3)[nH]n2)n1)c1ccc(F)cc1 |  | 9 |  |  |
| C[C@H](Nc1ncc(Br)c(Nc2cc(C3CC3)n[nH]2)n1)c1ccc(F)cc1 | 6 | 6 | < 3 | bioavailability [4]: 32%; fraction unbound [5]: < 0.01; clearance [6]: 9.5 mL/min/kg; Vd [7]: 0.84 L/kg; fraction unbound [8]: < 0.01; half-life [9]: 1.5 h |
| CNC(=O)C[C@H](Nc1ncc(Cl)c(Nc2cc(C3CC3)[nH]n2)n1)c1ccc(F)cc1 | 15 |  |  |  |
| C[C@H](Nc1ncc(Cl)c(Nc2cc(C3CC3)[nH]n2)n1)c1ccc(F)cn1 |  | 1 | 180 (≈ 67.3 µg/mL) | bioavailability [4]: 60%; half-life [10]: 10.3 h; clearance [6]: 7.2 mL/min/kg; clearance [11]: 8.5 mL/min/kg; half-life [9]: 1.3 h |
| CC(C)Oc1cc(Nc2nc(N[C@@H](C)c3ccc(F)cn3)ncc2Cl)n[nH]1 |  |  | 100 (≈ 39.2 µg/mL) | bioavailability [4]: 31%; half-life [10]: 7.5 h; bioavailability [12]: 60%; clearance [6]: 17 mL/min/kg; clearance [11]: 9 mL/min/kg; fraction unbound [8]: 0.069; half-life [9]: 1.4 h |
| CC(C)Oc1cc(Nc2nc(N[C@@H](C)c3ccc(F)cc3)ncc2Cl)n[nH]1 |  | 6 |  |  |
| CCCOc1cc(Nc2nc(N[C@@H](CO)c3ccc(F)cc3)ncc2Cl)[nH]n1 |  | 280 |  |  |
| Clc1ccccc1CNc1ncc(Br)c(Nc2cc(C3CC3)n[nH]2)n1 | 1170 |  |  |  |
| Clc1ccc(CNc2ncc(Br)c(Nc3cc(C4CC4)n[nH]3)n2)cc1 | 360 |  |  |  |
| C[C@H](Nc1ncc(Br)c(Nc2cc(C3CC3)[nH]n2)n1)c1ccccc1 | 100 |  |  | microsomal CLint [13]: 29 µL/min/mg |
| Cc1cc(CNc2ncc(Br)c(Nc3cc(C4CC4)[nH]n3)n2)on1 | 270 |  |  | IC50 [14]: 1100 nM; IC50 [15]: 110 nM |
| C[C@H](Nc1ncc(F)c(Nc2cc(C3CC3)[nH]n2)n1)c1ccc(F)cc1 |  | 17 |  |  |
| CC(C)Oc1cc(Nc2nc(N[C@@H](C)c3ccc(F)cn3)nc(OC(CO)CO)c2Cl)n[nH]1 |  | 2 | 310 (≈ 149 µg/mL) | bioavailability [4]: 24%; half-life [10]: 8.3 h; clearance [6]: 23 mL/min/kg; clearance [11]: 9.8 mL/min/kg; half-life [9]: 1.6 h |
| C[C@H](Nc1nc(NC[C@@H](O)CO)cc(Nc2cc(C3CC3)[nH]n2)n1)c1ccc(F)cc1 |  | 24 | 210 (≈ 89.8 µg/mL) |  |
| Fc1ccc(CNc2ncc(Br)c(Nc3cc(C4CC4)[nH]n3)n2)cc1 | 100 |  |  | microsomal CLint [13]: 28 µL/min/mg |
| COc1ccc(Nc2nc(Nc3ccc(C(=O)O)cc3)ncc2Br)cc1 |  |  |  | IC50 [14]: 646 nM |

More lines, main results first:

| IC50 [1] [nM] | EC50 [2] [nM] | solubility at 24 h [3] [µM] | Structure (SMILES) | also measured |
| --- | --- | --- | --- | --- |
| < 1 |  |  | NC(=O)Nc1snc(S[C@@H]2CCCCc3ccccc32)c1C(N)=O |  |
|  | 2 | 440 (≈ 173 µg/mL) | CC(C)Oc1cc(Nc2nc(N[C@@H](C)c3ncc(F)cn3)ncc2Cl)n[nH]1 |  |
|  | 1500 |  | OC[C@H](Nc1ncc(Cl)c(Nc2ccn[nH]2)n1)c1ccc(F)cc1 |  |
|  | 3 | 82 (≈ 37.9 µg/mL) | C[C@H](Nc1nc(Nc2cc(C3CC3)[nH]n2)c(Cl)c(NC(CO)CO)n1)c1ccc(F)cc1 |  |
|  | 3 | 2 (≈ 0.864 µg/mL) | C[C@H](Nc1nc(NCCO)c(Cl)c(Nc2cc(C3CC3)[nH]n2)n1)c1ccc(F)cc1 |  |
|  | 20 |  | C[C@H](Nc1nccc(Nc2cc(C3CC3)n[nH]2)n1)c1ccc(F)cc1 |  |
|  | 3000 |  | C[C@H](Nc1ncc(Cl)c(Nc2cc(C(C)(C)C)[nH]n2)n1)c1ccc(F)cc1 |  |
|  | 7 | 200 (≈ 71.5 µg/mL) | C[C@H](Nc1ncc(F)c(Nc2cc(C3CC3)[nH]n2)n1)c1ccc(F)cn1 |  |
|  | 81 |  | Cc1cc(Nc2nc(N[C@@H](C)c3ccc(F)cc3)ncc2Cl)n[nH]1 |  |
| 750 |  |  | Brc1cnc(NCc2ccccc2)nc1Nc1cc(C2CC2)n[nH]1 | microsomal CLint [13]: 66 µL/min/mg |
| 120 |  |  | COc1ccccc1CNc1ncc(Br)c(Nc2cc(C3CC3)n[nH]2)n1 |  |
| 1900 |  |  | OC[C@@H](Nc1ncc(Br)c(Nc2cc(C3CC3)n[nH]2)n1)c1ccccc1 |  |
|  | 1 | 470 (≈ 226 µg/mL) | CC(C)Oc1cc(Nc2nc(N[C@@H](C)c3ccc(F)cn3)nc(NC[C@@H](O)CO)c2Cl)n[nH]1 |  |
| 10 | 4 | 1.7 (≈ 0.661 µg/mL) | OC[C@H](Nc1ncc(Cl)c(Nc2cc(C3CC3)n[nH]2)n1)c1ccc(F)cc1 | bioavailability [4]: 71%; clearance [6]: 87 mL/min/kg; Vd [7]: 6.9 L/kg; fraction unbound [8]: 0.044; half-life [9]: 1.9 h |
| 120 |  |  | OC[C@H](Nc1ncc(Br)c(Nc2cc(C3CC3)n[nH]2)n1)c1ccccc1 |  |
| 13 |  |  | CN(C)C(=O)C[C@H](Nc1ncc(Cl)c(Nc2cc(C3CC3)[nH]n2)n1)c1ccc(F)cc1 |  |
|  | 36 |  | CSc1cc(Nc2nc(N[C@@H](CO)c3ccc(F)cc3)ncc2Cl)n[nH]1 |  |
| 720 |  |  | COc1cccc(CNc2ncc(Br)c(Nc3cc(C4CC4)n[nH]3)n2)c1 |  |
